The test system of the experiment is MV-4-11 cells. Put plainly: Gene expression microarray analysis (Affymetrix PrimeView) and GSEA. On the set-up: RFU PODN (11730768_x_at) / Fold change /veh PODN (11730768_x_at) / RFU LINC00158 (11744669_a_at) / Fold change /veh LINC00158 (11744669_a_at) / RFU DUSP10 (11751237_a_at) / Fold change /veh DUSP10 (11751237_a_at) / RFU ID3 (11757404_x_at) / Fold change /veh ID3 (11757404_x_at) / RFU PLEKHG5 (11737974_s_at) / Fold change /veh PLEKHG5 (11737974_s_at) / RFU LRRC4B (11730491_at) / Fold change /veh LRRC4B (11730491_at) / RFU GIMAP4 (11747438_a_at) / Fold change /veh GIMAP4 (11747438_a_at) / RFU KRT8 (11758183_x_at) / Fold change /veh KRT8 (11758183_x_at) / RFU CNN1 (11734310_a_at) / Fold change /veh CNN1 (11734310_a_at) / RFU VPS37D (11726825_at) / Fold change /veh VPS37D (11726825_at) / RFU C10orf10 (11716522_x_at) / Fold change /veh C10orf10 (11716522_x_at) / RFU KIR2DL2 /// KIR2DL4 /// KIR2DL5A /// KIR2DL5B /// KIR2DS1 /// KIR2DS2 /// KIR2DS3 /// KIR2DS4 /// KIR3DL3 /// KIR3DL3 /// KIR3DS1 (11738374_at) / Fold change /veh KIR2DL2 /// KIR2DL4 /// KIR2DL5A /// KIR2DL5B /// KIR2DS1 /// KIR2DS2 /// KIR2DS3 /// KIR2DS4 /// KIR3DL3 /// KIR3DL3 /// KIR3DS1 (11738374_at) / RFU C1QL1 (11718748_at) / Fold change /veh C1QL1 (11718748_at) / RFU TMPRSS4 (11747572_a_at) / Fold change /veh TMPRSS4 (11747572_a_at) / RFU HAMP (11756126_x_at) / Fold change /veh HAMP (11756126_x_at) / RFU RNFT2 (11725882_a_at) / Fold change /veh RNFT2 (11725882_a_at) / RFU NR4A2 (11747474_a_at) / Fold change /veh NR4A2 (11747474_a_at) / RFU ABCC12 (11746883_a_at) / Fold change /veh ABCC12 (11746883_a_at) / RFU TMEM136 (11760407_x_at) / Fold change /veh TMEM136 (11760407_x_at) / RFU CLDN22 /// WWC2 (11732394_at) / Fold change /veh CLDN22 /// WWC2 (11732394_at) / RFU HLA-DPB1 (11760878_x_at) / Fold change /veh HLA-DPB1 (11760878_x_at) / RFU SPINT1 (11716480_a_at) / Fold change /veh SPINT1 (11716480_a_at) / RFU GAP43 (11754022_s_at) / Fold change /veh GAP43 (11754022_s_at) / RFU A4GNT (11735810_at) / Fold change /veh A4GNT (11735810_at) / RFU PRB3 (11715151_x_at) / Fold change /veh PRB3 (11715151_x_at) / RFU TUBB4B (11761932_at) / Fold change /veh TUBB4B (11761932_at) / RFU CAPN14 (11732068_a_at) / Fold change /veh CAPN14 (11732068_a_at) / RFU TMCC2 (11721928_a_at) / Fold change /veh TMCC2 (11721928_a_at) / RFU IRGQ (11745062_a_at) / Fold change /veh IRGQ (11745062_a_at) / RFU FAM174B (11720279_a_at) / Fold change /veh FAM174B (11720279_a_at) / RFU TMPRSS4 (11748680_a_at) / Fold change /veh TMPRSS4 (11748680_a_at) / RFU FAM212B (11763350_a_at) / Fold change /veh FAM212B (11763350_a_at) / RFU PLEKHG5 (11743358_a_at) / Fold change /veh PLEKHG5 (11743358_a_at) / RFU ZSCAN30 (11745921_a_at) / Fold change /veh ZSCAN30 (11745921_a_at) / RFU CMKLR1 (11741424_a_at) / Fold change /veh CMKLR1 (11741424_a_at) / RFU LOC101060620 /// MAPK8IP1 (11723275_at) / Fold change /veh LOC101060620 /// MAPK8IP1 (11723275_at) / RFU SPTSSB (11747773_x_at) / Fold change /veh SPTSSB (11747773_x_at) / RFU PRSS12 (11739890_at) / Fold change /veh PRSS12 (11739890_at) / RFU BIN1 (11741810_x_at) / Fold change /veh BIN1 (11741810_x_at) / RFU WNT11 (11732464_a_at) / Fold change /veh WNT11 (11732464_a_at) / RFU C10orf10 (11716521_a_at) / Fold change /veh C10orf10 (11716521_a_at) / RFU C5orf56 (11738089_at) / Fold change /veh C5orf56 (11738089_at) / RFU CYB561 (11721691_x_at) / Fold change /veh CYB561 (11721691_x_at) / RFU ANKRD19P (11752326_a_at) / Fold change /veh ANKRD19P (11752326_a_at) / RFU OR2T12 /// OR2T33 /// OR2T8 (11738714_s_at) / Fold change /veh OR2T12 /// OR2T33 /// OR2T8 (11738714_s_at) / RFU VCAN (11748164_a_at) / Fold change /veh VCAN (11748164_a_at) / RFU JSRP1 (11732532_at) / Fold change /veh JSRP1 (11732532_at) / RFU KRTAP10-11 (11738290_x_at) / Fold change /veh KRTAP10-11 (11738290_x_at) / RFU MYO3A (11730013_a_at) / Fold change /veh MYO3A (11730013_a_at) / RFU EBF3 (11725865_a_at) / Fold change /veh EBF3 (11725865_a_at) / RFU CAMK2N1 (11719241_x_at) / Fold change /veh CAMK2N1 (11719241_x_at) / RFU C5orf56 (11738088_a_at) / Fold change /veh C5orf56 (11738088_a_at) / RFU OLFML3 (11715873_a_at) / Fold change /veh OLFML3 (11715873_a_at) / RFU LOC100653217 /// NTM (11731650_a_at) / Fold change /veh LOC100653217 /// NTM (11731650_a_at) / RFU MAPK11 (11762145_a_at) / Fold change /veh MAPK11 (11762145_a_at) / RFU FIZ1 (11724087_x_at) / Fold change /veh FIZ1 (11724087_x_at) / RFU OASL (11726364_x_at) / Fold change /veh OASL (11726364_x_at) / RFU SOX15 (11748057_x_at) / Fold change /veh SOX15 (11748057_x_at) / RFU CD79A (11719716_a_at) / Fold change /veh CD79A (11719716_a_at) / RFU HIST1H1D (11736915_at) / Fold change /veh HIST1H1D (11736915_at) / RFU CASKIN2 (11723855_a_at) / Fold change /veh CASKIN2 (11723855_a_at) / RFU LOC730098 (11760151_x_at) / Fold change /veh LOC730098 (11760151_x_at) / RFU OR4N2 (11742367_at) / Fold change /veh OR4N2 (11742367_at) / RFU PRRT2 (11749266_a_at) / Fold change /veh PRRT2 (11749266_a_at) / RFU SNX32 (11753110_a_at) / Fold change /veh SNX32 (11753110_a_at) / RFU CDHR5 (11726645_a_at) / Fold change /veh CDHR5 (11726645_a_at) / RFU RCAN1 (11760418_a_at) / Fold change /veh RCAN1 (11760418_a_at) / RFU FAM167A (11723789_a_at) / Fold change /veh FAM167A (11723789_a_at) / RFU FAM26E (11764081_at) / Fold change /veh FAM26E (11764081_at) / RFU ISYNA1 (11749810_s_at) / Fold change /veh ISYNA1 (11749810_s_at) / RFU ACY1 (11761880_at) / Fold change /veh ACY1 (11761880_at) / RFU 11764098_at / Fold change /veh 11764098_at / RFU SAMD14 (11745864_x_at) / Fold change /veh SAMD14 (11745864_x_at) / RFU NPB (11741838_a_at) / Fold change /veh NPB (11741838_a_at) / RFU TMPRSS6 (11731388_a_at) / Fold change /veh TMPRSS6 (11731388_a_at) / RFU KRTAP10-2 (11738614_at) / Fold change /veh KRTAP10-2 (11738614_at) / RFU ARHGAP8 /// PRR5-ARHGAP8 (11727945_x_at) / Fold change /veh ARHGAP8 /// PRR5-ARHGAP8 (11727945_x_at) / RFU KRTAP5-7 /// NADSYN1 (11734609_at) / Fold change /veh KRTAP5-7 /// NADSYN1 (11734609_at) / RFU RASL12 (11751679_a_at) / Fold change /veh RASL12 (11751679_a_at) / RFU CDKN2B (11736163_a_at) / Fold change /veh CDKN2B (11736163_a_at) / RFU PRF1 (11729649_at) / Fold change /veh PRF1 (11729649_at) / RFU, ZNF638 /// ZNF638-IT1 / Fold change vs veh, ZNF638 /// ZNF638-IT1 / RFU, PANK3 / Fold change vs veh, PANK3 / RFU, SH3YL1 / Fold change vs veh, SH3YL1 / RFU, ZEB2 / Fold change vs veh, ZEB2 / RFU, NRIP1 / Fold change vs veh, NRIP1 / RFU, PTTG1IP / Fold change vs veh, PTTG1IP / RFU, CAPN2 / Fold change vs veh, CAPN2 / RFU, MED14 / Fold change vs veh, MED14 / RFU, SNORA58 / Fold change vs veh, SNORA58 / RFU, C1orf63 / Fold change vs veh, C1orf63 / RFU, LRRFIP1 / Fold change vs veh, LRRFIP1 / RFU, NDUFAF7 / Fold change vs veh, NDUFAF7 / RFU, SLC12A2 / Fold change vs veh, SLC12A2 / RFU, IBTK / Fold change vs veh, IBTK / RFU, ESF1 / Fold change vs veh, ESF1 / Fold change vs veh, TMEM50B / RFU, TAOK1 / Fold change vs veh, TAOK1 / RFU, ACBD3 / Fold change vs veh, ACBD3 / RFU, TMA16 / Fold change vs veh, TMA16 / RFU, RWDD3 / Fold change vs veh, RWDD3 / RFU, BCAT1 / Fold change vs veh, BCAT1 / RFU, EDEM3 / Fold change vs veh, EDEM3 / RFU, TMEM33 / Fold change vs veh, TMEM33 / RFU, WDR75 / Fold change vs veh, WDR75 / RFU, AHCTF1 / Fold change vs veh, AHCTF1 / RFU, TFRC / Fold change vs veh, TFRC / RFU, ZDHHC17 / Fold change vs veh, ZDHHC17 / RFU, NOM1 / Fold change vs veh, NOM1 / RFU, ARL8B / Fold change vs veh, ARL8B / RFU, ZBTB11 / Fold change vs veh, ZBTB11 / RFU, TAMM41 / Fold change vs veh, TAMM41 / RFU, KIAA1704 /// LOC100996395 / Fold change vs veh, KIAA1704 /// LOC100996395 / RFU, ING1 / Fold change vs veh, ING1 / RFU, TRMT61B / Fold change vs veh, TRMT61B / RFU, FUBP3 / Fold change vs veh, FUBP3 / RFU, TP53 / Fold change vs veh, TP53 / RFU, TNKS2 / Fold change vs veh, TNKS2 / RFU, ZFP14 / Fold change vs veh, ZFP14 / RFU, ACTR2 / Fold change vs veh, ACTR2 / RFU, PPP3R1 / Fold change vs veh, PPP3R1 / RFU, PIK3R1 / Fold change vs veh, PIK3R1 / RFU, HNRNPA1 / Fold change vs veh, HNRNPA1 / RFU, RNF170 / Fold change vs veh, RNF170 / RFU, ZNF28 / Fold change vs veh, ZNF28 / RFU, RNGTT / Fold change vs veh, RNGTT / RFU, OGT / Fold change vs veh, OGT / RFU, BRD1 / Fold change vs veh, BRD1 / RFU, MARS / Fold change vs veh, MARS / RFU, ZNF655 / Fold change vs veh, ZNF655 / RFU, FAHD1 / Fold change vs veh, FAHD1 / RFU, BDP1 / Fold change vs veh, BDP1 / RFU, LRRCC1 / Fold change vs veh, LRRCC1 / RFU, ARID1A / Fold change vs veh, ARID1A / RFU, ZNF146 / Fold change vs veh, ZNF146 / RFU, ZNF330 / Fold change vs veh, ZNF330 / RFU, GPN3 / Fold change vs veh, GPN3 / RFU, C9orf123 / Fold change vs veh, C9orf123 / RFU, N4BP2L2 / Fold change vs veh, N4BP2L2 / RFU, ARFIP1 / Fold change vs veh, ARFIP1 / RFU, FAM179B / Fold change vs veh, FAM179B / RFU, BCL10 / Fold change vs veh, BCL10 / RFU, UHRF1BP1L / Fold change vs veh, UHRF1BP1L / RFU, BET1 / Fold change vs veh, BET1 / RFU, CNOT2 / Fold change vs veh, CNOT2 / RFU, ZNF268 / Fold change vs veh, ZNF268 / Fold change vs veh, ZNF507 / RFU, DGCR2 / Fold change vs veh, DGCR2 / RFU, WDSUB1 / Fold change vs veh, WDSUB1 / Fold change vs veh, HSP90B1 /// MIR3652 / RFU, ADSS / Fold change vs veh, ADSS / RFU, GK / Fold change vs veh, GK / RFU, ZNF148 / Fold change vs veh, ZNF148 / RFU, TAF9 / Fold change vs veh, TAF9 / RFU, SLC1A5 / Fold change vs veh, SLC1A5 / RFU, SLMO2 / Fold change vs veh, SLMO2 / RFU, ABCC4 / Fold change vs veh, ABCC4 / RFU, LOC101060439 /// RAP1B / Fold change vs veh, LOC101060439 /// RAP1B / RFU, RFX7 / Fold change vs veh, RFX7 / RFU, GTPBP10 / Fold change vs veh, GTPBP10 / RFU, CNEP1R1 / Fold change vs veh, CNEP1R1 / RFU, BIVM-ERCC5 /// ERCC5 / Fold change vs veh, BIVM-ERCC5 /// ERCC5 / RFU, ILF3 / Fold change vs veh, ILF3 / RFU 11762660_at / Fold change /veh 11762660_at / RFU VCAN (11757783_s_at) / Fold change /veh VCAN (11757783_s_at) / RFU DDX43 (11728927_at) / Fold change /veh DDX43 (11728927_at) / RFU KRT8 (11758188_x_at) / Fold change /veh KRT8 (11758188_x_at) / RFU NKD1 (11759106_at) / Fold change /veh NKD1 (11759106_at) / RFU SRD5A1 (11742802_a_at) / Fold change /veh SRD5A1 (11742802_a_at) / RFU TPSAB1 /// TPSB2 (11721975_s_at) / Fold change /veh TPSAB1 /// TPSB2 (11721975_s_at) / RFU GSTM3 (11746129_a_at) / Fold change /veh GSTM3 (11746129_a_at) / RFU IL23R (11737362_x_at) / Fold change /veh IL23R (11737362_x_at) / RFU TMEM51 (11727254_a_at) / Fold change /veh TMEM51 (11727254_a_at) / RFU PIWIL2 (11732686_x_at) / Fold change /veh PIWIL2 (11732686_x_at) / RFU ORM1 (11744905_x_at) / Fold change /veh ORM1 (11744905_x_at) / RFU CCDC152 (11743942_at) / Fold change /veh CCDC152 (11743942_at) / RFU ECM1 (11717891_a_at) / Fold change /veh ECM1 (11717891_a_at) / RFU IL23R (11748794_a_at) / Fold change /veh IL23R (11748794_a_at) / RFU TNFAIP8L3 (11732012_x_at) / Fold change /veh TNFAIP8L3 (11732012_x_at) / RFU MBOAT4 (11741988_at) / Fold change /veh MBOAT4 (11741988_at) / RFU 11764193_at / Fold change /veh 11764193_at / RFU TMEM53 (11763286_at) / Fold change /veh TMEM53 (11763286_at) / RFU MAGEB2 (11727129_at) / Fold change /veh MAGEB2 (11727129_at) / RFU TMEM200A (11744735_a_at) / Fold change /veh TMEM200A (11744735_a_at) / RFU CCDC152 (11751479_a_at) / Fold change /veh CCDC152 (11751479_a_at) / RFU FAM211A (11726209_a_at) / Fold change /veh FAM211A (11726209_a_at) / RFU RGS16 (11746705_a_at) / Fold change /veh RGS16 (11746705_a_at) / RFU VCAN (11755009_s_at) / Fold change /veh VCAN (11755009_s_at) / RFU RHOB (11743442_s_at) / Fold change /veh RHOB (11743442_s_at) / RFU RGS16 (11720943_a_at) / Fold change /veh RGS16 (11720943_a_at) / RFU RGS16 (11720944_at) / Fold change /veh RGS16 (11720944_at) / RFU, VPS4B / Fold change vs veh, VPS4B / RFU, CREB1 / Fold change vs veh, CREB1 / RFU, DNAJC13 / Fold change vs veh, DNAJC13 / RFU, GNAQ / Fold change vs veh, GNAQ / RFU, CDK5R1 / Fold change vs veh, CDK5R1 / RFU, ZRANB3 / Fold change vs veh, ZRANB3 / RFU, CUL4A / Fold change vs veh, CUL4A / RFU, CCNY / Fold change vs veh, CCNY / RFU, UFL1 / Fold change vs veh, UFL1 / RFU, COG3 / Fold change vs veh, COG3 / RFU, DIAPH2 / Fold change vs veh, DIAPH2 / RFU, SKA2 / Fold change vs veh, SKA2 / RFU, AFF3 / Fold change vs veh, AFF3 / RFU, LMF1 / Fold change vs veh, LMF1 / RFU, IPO11 / Fold change vs veh, IPO11 / RFU, DFFB / Fold change vs veh, DFFB / RFU, FOXP1 / Fold change vs veh, FOXP1 / RFU, CARD8 / Fold change vs veh, CARD8 / RFU, STRN3 / Fold change vs veh, STRN3 / RFU, ADK / Fold change vs veh, ADK / RFU, RASSF2 / Fold change vs veh, RASSF2 / RFU, WIPF1 / Fold change vs veh, WIPF1 / RFU, LARP1B / Fold change vs veh, LARP1B / RFU, RASA1 / Fold change vs veh, RASA1 / RFU, RB1 / Fold change vs veh, RB1 / RFU, PPFIA1 / Fold change vs veh, PPFIA1 / RFU, MAT2A / Fold change vs veh, MAT2A / RFU, CCT5 / Fold change vs veh, CCT5 / RFU, WDR92 / Fold change vs veh, WDR92 / RFU, CUX1 / Fold change vs veh, CUX1 / RFU, TTC7A / Fold change vs veh, TTC7A / RFU, TMEM135 / Fold change vs veh, TMEM135 / RFU, DEPTOR / Fold change vs veh, DEPTOR / RFU, CPM / Fold change vs veh, CPM / RFU, DNAJB6 / Fold change vs veh, DNAJB6 / RFU, CACNA2D3 / Fold change vs veh, CACNA2D3 / RFU, DTX4 / Fold change vs veh, DTX4 / RFU, TFCP2 / Fold change vs veh, TFCP2 / RFU, GMCL1 /// GMCL1P1 / Fold change vs veh, GMCL1 /// GMCL1P1 / RFU, AEBP2 / Fold change vs veh, AEBP2 / RFU, SNHG1 /// SNORD22 /// SNORD25 /// SNORD26 /// SNORD27 /// SNORD28 /// SNORD29 /// SNORD31 / Fold change vs veh, SNHG1 /// SNORD22 /// SNORD25 /// SNORD26 /// SNORD27 /// SNORD28 /// SNORD29 /// SNORD31 / Fold change (Aza/veh), C12orf56 (ProbeSet 11735607_a_at) / Fold change (ACY-1035/veh), C12orf56 (ProbeSet 11735607_a_at) / Fold change (Aza/veh), FGFR1OP (ProbeSet 11751329_s_at) / Fold change (ACY-1035/veh), FGFR1OP (ProbeSet 11751329_s_at) / Fold change (Aza/veh), VPS36 (ProbeSet 11739960_a_at) / Fold change (ACY-1035/veh), VPS36 (ProbeSet 11739960_a_at) / RFU SYPL1 (11715823_x_at) / Fold change /veh SYPL1 (11715823_x_at) / RFU IGFBP7 (11715501_s_at) / Fold change /veh IGFBP7 (11715501_s_at) / RFU REEP3 (11722064_at) / Fold change /veh REEP3 (11722064_at) / RFU IGLL1 (11728026_x_at) / Fold change /veh IGLL1 (11728026_x_at): dose or concentration left out as unconfirmed. The class given is cell-based, human. To be noted: ProbeSet 11764057_s_at; LIST B.

Take `Nc1ccc(-c2cccs2)cc1NC(=O)c1ccc2c(c1)cc(C1CC1)n2CCN1CCOCC1` [ACY-1035]: the “Fold change vs veh, C1orf63” value is listed as 0.95.

The values above are taken from PMC5218480 (PLoS ONE, 2017).
